# Measured values: patent US6352988B2, “Indane or dihydroindole derivatives” (H. Lundbeck A/S, priority 1996, dated 2002)
# Target: T1, dopamine D4 receptors in cloned human dopamine receptor subtype 4.2 membranes (Homo sapiens, UniProt P21917, DEL271-302)
# T1 sequence (P21917 with tags, fused parts or gaps DEL271-302): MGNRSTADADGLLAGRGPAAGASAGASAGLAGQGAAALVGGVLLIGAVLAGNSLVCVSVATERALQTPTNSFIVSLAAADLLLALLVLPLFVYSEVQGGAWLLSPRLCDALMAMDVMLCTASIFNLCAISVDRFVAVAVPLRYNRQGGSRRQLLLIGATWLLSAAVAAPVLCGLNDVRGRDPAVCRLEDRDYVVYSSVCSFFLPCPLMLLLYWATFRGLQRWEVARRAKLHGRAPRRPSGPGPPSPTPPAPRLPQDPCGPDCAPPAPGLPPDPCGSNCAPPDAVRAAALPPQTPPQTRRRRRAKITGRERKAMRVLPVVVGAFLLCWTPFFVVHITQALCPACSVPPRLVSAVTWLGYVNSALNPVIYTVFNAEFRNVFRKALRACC
# Test: 3H-YM-09151-2 binding (affinity for dopamine D4 receptors)
# Conditions: 3H-YM-09151-2, cloned human D4.2 membranes; * means that the test result is preliminary; read-out: D4-bind. IC50
# Protocol: By this method the inhibition by drugs of the binding of the dopamine D4 antagonist ^3H-YM-09151-2 to dopamine D4 receptors in cloned human dopamine receptor subtype 4.2 membranes is determined in vitro. Accordingly, this is a test for affinity for dopamine D4 receptors. The test is performed using a preparation of cloned dopamine D4 cell membranes CRM-016®, Dupharma A/S, Denmark, in accordance with the product specifications.
row,Structure (SMILES),IC50 [nM]
1,"CC(=O)N1CC(CCN2CC=C(c3c[nH]c4cc(Cl)ccc34)CC2)c2ccccc21 (single isomer, unassigned; (+)) [Compound 34a]",4
2,"C1=C(c2c[nH]c3ccccc23)CCN(CC2CCc3ccccc32)C1 (centres unmarked) [Compound 5a, 3-[1-(1-Indanylmethyl)-1,2,3,6-tetrahydropyridin-4-yl]-1H-indole]",3.5
3,"c1ccc2c(c1)CCC2CN1CCC(c2c[nH]c3ccccc23)CC1 (centres unmarked) [Compound 5b, 3-[1-(1-Indanylmethyl)piperindin-4-yl]-1H-indole]",5
4,"COc1cccc2c1C(CN1CC=C(c3c[nH]c4cc(Cl)ccc34)CC1)CC2 (centres unmarked) [Compound 5c, 6-Chloro-3-[1-(7-methoxyindan-1-yl)methyl-1,2,3,6-tetrahydropyridin-4-yl]-1H-indole]",32
5,"COc1ccc2c(c1)C(CN1CC=C(c3c[nH]c4ccccc34)CC1)CC2 (centres unmarked) [Compound 5d, 3-[1-(6-methoxyindan-1-yl)methyl-1,2,3,6-tetrahydropyridin-4-yl]-1H-indole]",20
6,"N#Cc1ccc2c(c1)C(CN1CC=C(c3c[nH]c4cc(Cl)ccc34)CC1)CC2 (centres unmarked) [Compound 6a, 6-Chloro-3-[1-(6-cyano-1-indanylmethyl)-1,2,3,6-tetrahydropyridin-4-yl]-1H-indole]",6.8
7,"N#Cc1ccc2c(c1)C(CN1CCC(c3c[nH]c4cc(Cl)ccc34)CC1)CC2 (centres unmarked) [Compound 6b, 6-Chloro-3-[1-(6-cyano-1-indanylmethyl)piperidin-4-yl]-1H-indole]",3.3
8,"CC(=O)Nc1ccc2c(c1)CCC2CN1CC=C(c2c[nH]c3cc(Cl)ccc23)CC1 (centres unmarked) [Compound 6d, 6-Chloro-3-[1-(5-acetylamino-1-indanylmethyl)-1,2,3,6-tetrahydropyridin-4-yl]-1H-indole]",30
9,"Clc1ccc2c(C3=CCN(CC4CCc5ccc(Br)cc54)CC3)c[nH]c2c1 (centres unmarked) [Compound 6e, 6-Chloro-3-[1-(6-bromo-1-indanylmethyl)-1,2,3,6-tetrahydropyridin-4-yl]-1H-indole]",84
10,"Fc1ccc2[nH]cc(C3CCN(CCC4CCc5ccccc54)CC3)c2c1 (centres unmarked) [Compound 8c, 5-fluoro-3-[1-[2-(indan-1-yl)ethyl]-piperidin-4-yl]-1H-indole]",2.3
11,"Fc1ccc2[nH]cc(C3CCN(CCCCC4CCc5ccccc54)CC3)c2c1 (centres unmarked) [Compound 8e, 5-fluoro-3-[1-[4-(indan-1-yl)butan-1-yl]-piperidin-4-yl]-1H-indole]",8.3
12,"Clc1ccc2c(C3CCN(CCCCC4CCc5ccccc54)CC3)c[nH]c2c1 (centres unmarked) [Compound 8f, 6-Chloro-3-[1-[4-(indan-1-yl)butan-1-yl)-piperidin-4-yl]-1H-indole]",12
13,"Clc1ccc2c(C3=CCN(CCCC4CCc5ccccc54)CC3)c[nH]c2c1 (centres unmarked) [Compound 8g, 6-Chloro-3-[1-[3-(indan-1-yl)propan-1-yl]-1,2,3,6-tetrahydropyridin-4-yl]-1H-indole]",14
14,Clc1ccc2c(C3=CCN(CCCCC4CCc5ccccc54)CC3)c[nH]c2c1 (centres unmarked) [Compound 8h],34
15,"Clc1ccc2c(C3=CCN(CC4Cc5ccccc5C4)CC3)c[nH]c2c1 [Compound 11a, 6-Chloro-3-[1-(indan-2-yl)methyl-1,2,3,6-tetrahydropyridin-4-yl]-1H-indole]",2.8
16,"Clc1cccc2c(C3=CCN(CC4Cc5ccccc5C4)CC3)c[nH]c12 [Compound 11c, 7-Chloro-3-[1-(indan-2-yl)methyl-1,2,3,6-tetrahydropyridin-4-yl]-1H-indole]",3.8
17,"c1ccc2c(c1)CC(CN1CCN(c3ccc4[nH]ccc4c3)CC1)C2 [Compound 11f, 5-[4-(Indan-2-yl)methylpiperazin-1-yl]-1H-indole]",1.6
18,"Clc1ccc2c(C3=CCN(CC4CCc5ccc6[nH]ccc6c54)CC3)c[nH]c2c1 (centres unmarked) [Compound 16a, 8-[4-(6-Chloro-1H-indol-3-yl)-1,2,3,6-tetrahydropyridin-1-ylmethyl]-3,6,7,8-tetrahydro-cyclopent[e]indole]",6.2
19,"CC(=O)Nc1cccc2c1CC(CN1CC=C(c3c[nH]c4cc(Cl)ccc34)CC1)C2 (centres unmarked) [Compound 18a, 6-Chloro-3-[1-(4-acetylaminoindan-2-yl)methyl-1,2,3,6-tetrahydropyridine-4-yl]-1H-indole]",7.5

row,Structure (SMILES),IC50 [nM]
1,"CC(=O)Nc1cccc2c1CC(CN1CCC(c3c[nH]c4cc(Cl)ccc34)CC1)C2 (centres unmarked) [Compound 18b, 6-Chloro-3-[1-(4-acetylaminoindan-2-yl)methylpiperidin-4-yl]-1H-indole]",4.3
2,CC(=O)Nc1ccc2c(c1)C(CCN1CC=C(c3c[nH]c4cc(Cl)ccc34)CC1)CC2 (centres unmarked) [Compound 18c],41
3,"CC(=O)Nc1ccc2c(c1)C(CCCN1CC=C(c3c[nH]c4cc(Cl)ccc34)CC1)CC2 (centres unmarked) [Compound 18d, 6-Chloro-3-[1-[3-(6-acetylaminoindan-1-yl)propan-1-yl]-1,2,3,6-tetrahydropyridin-4-yl]-1H-indole]",7.3
4,"CC(=O)Nc1ccc2c(c1)C(CCCCN1CC=C(c3c[nH]c4cc(Cl)ccc34)CC1)CC2 (centres unmarked) [Compound 18e, 6-Chloro-3-[1-[4-(6-acetylaminoindan-1-yl)butan-1-yl]-1,2,3,6-tetrahydropyridin-4-yl]-1H-indole]",66
5,"CC(=O)N1CC(CCN2CC=C(c3c[nH]c4cc(Cl)ccc34)CC2)c2ccccc21 (centres unmarked) [Compound 20a, 3-[1-[2-(1-Acetyl-2,3-dihydro-1H-indol-3-yl)ethyl]-1,2,3,6-tetrahydropyridin-4-yl]-6-chloro-1H-indole]",3.1
6,"CC(=O)N1CC(CCN2CCC(c3c[nH]c4cc(Cl)ccc34)CC2)c2ccccc21 (centres unmarked) [Compound 20b, 3-[1-[2-(1-Acetyl-2,3-dihydro-1H-indol-3-yl)ethyl]piperidin-4-yl]-6-chloro-1H-indole]",6.7
7,"O=CN1CC(CCN2CC=C(c3c[nH]c4cc(Cl)ccc34)CC2)c2ccccc21 (centres unmarked) [Compound 20c, 6-Chloro-3-[1-[2-(1-formyl-2,3-dihydro-1H-indol-3-yl)ethyl]-1,2,3,6-tetrahydropyridin-4yl]-1H-indole]",2.4
8,"O=CN1CC(CCN2CCC(c3c[nH]c4cc(Cl)ccc34)CC2)c2ccccc21 (centres unmarked) [Compound 20d, 6-Chloro-3-[1-[2-(1-formyl-2,3-dihydro-1H-indol-3-yl)ethyl]piperidin-4-yl]-1H-indole]",3
9,"CC(=O)N1CC(CCN2CC=C(c3c[nH]c4c(Cl)cccc34)CC2)c2ccccc21 (centres unmarked) [Compound 20f, 3-[1-[2-(1-Acetyl-2,3-dihydro-1H-indol-3-yl)ethyl]-1,2,3,6-tetrahydropyridin-4-yl]-7-chloro-1H-indole]",3.2
10,"CC(=O)N1CC(CCN2CC=C(c3c[nH]c4c(Cl)c(Cl)ccc34)CC2)c2ccccc21 (centres unmarked) [Compound 20g, 3-[1-[2-(1-Acetyl-2,3-dihydro-1H-indol-3-yl)ethyl]-1,2,3,6-tetrahydropyridin-4-yl]-6,7-dichloro-1H-indole]",16
11,"CC(=O)N1CC(CCN2CC=C(c3c[nH]c4cc5c(cc34)OCO5)CC2)c2ccccc21 (centres unmarked) [Compound 20h, 3-[1-[2-(1-Acetyl-2,3-dihydro-1H-indol-3-yl)ethyl]-1,2,3,6-tetrahydropyridin-4-yl]-5,6-methylenedioxy-1H-indole]",30
12,"CC(C)(C)OC(=O)N1CC(CCN2CC=C(c3c[nH]c4cc(Cl)ccc34)CC2)c2ccccc21 (centres unmarked) [Compound 20i, 3-[1-[2-(1-tert-Butoxycarbonyl-2,3-dihydro-1H-indol-3-yl)ethyl]-1,2,3,6-tetrahydropyridin-4-yl]-6-chloro-1H-indole]",2.9
13,"CC(=O)N1CC(CCN2CCN(c3ccc4[nH]ccc4c3)CC2)c2ccccc21 (centres unmarked) [Compound 20j, 5-[4-[2-(1-Acetyl-2,3-dihydro-1H-indol-3-yl)ethyl]piperazin-1-yl]-1H-indole]",6.9
14,"CC(=O)N1CC(CCCN2CC=C(c3c[nH]c4cc(Cl)ccc34)CC2)c2ccccc21 (centres unmarked) [Compound 20k, 3-[1-[3-(1-Acetyl-2,3-dihydro-1H-indol-3-yl)propyl]-1,2,3,6-tetrahydropyridin-4-yl]-6-chloro-1H-indole]",10
15,"CC(=O)N1CC(CCN2CC=C(c3c[nH]c4cc(Cl)ccc34)CC2)c2cc(C)ccc21 (centres unmarked) [Compound 20m, 3-[1-[2-(1-Acetyl-5-methyl-2,3-dihydro-1H-indol-3-yl)ethyl]-1,2,3,6-tetrahydropyridin-4-yl]-6-chloro-1H-indole]",8.4
16,"Clc1ccc2c(C3CCN(CC4Cc5ccccc5C4)CC3)c[nH]c2c1 [Compound 21a, 6-Chloro-3-[1-(indan-2-ylmethyl)piperidin-4yl]-1H-indole]",0.48
17,"Clc1cccc2c(C3CCN(CC4Cc5ccccc5C4)CC3)c[nH]c12 [Compound 21c, 7-Chloro-3-[1-(indan-2-ylmethyl)piperidin-4-yl]-1H-indole]",1.8
18,"c1ccc2c(c1)CC(CCN1CCN(c3cccc4[nH]ccc34)CC1)C2 [Compound 25a, 4-[4-[2-(Indan-2-yl)ethyl]piperazin-1-yl]-1H-indole]",2.7

# Same assay, conditions: at 50 nM; 3H-YM-09151-2, cloned human D4.2 membranes; read-out: D4-bind. % inhibition of binding at 50 nM
row,Structure (SMILES),inhibition at 0.05 µM [%]
1,"CC(=O)N1CC(CCN2CC=C(c3c[nH]c4cc(Cl)ccc34)CC2)c2cc(Br)ccc21 (centres unmarked) [Compound 20e, 3-[1-[2-(1-Acetyl-5-bromo-2,3-dihydro-1H-indol-3-yl)ethyl]-1,2,3,6-tetrahydropyridin-4yl]-6-chloro-1H-indole]",21
